From PubChem BioAssay AID2060891 (Molecular Pharmacology Branch, DTP, NCI, 2025)

System: K98450-129-R-PDC complex spheroid growth, percent test/control
Test: Anticancer human tumor K98450-129-R-PDC patient-derived colon adenocarcinoma cell line growth inhibition [RAS]
Conditions: for IC50: curve of first compound; for viability, T/C: stronger effect = lower value
Source text: RAS pathway inhibitors in Combinations in Complex Spheroids
A high-throughput screen of multi-cell type tumor spheroids was designed to identify active combinations of RAS pathway inhibitors and targeted small molecules. Complex spheroids include a stromal component modeled by human endothelial cells (HUVEC) and fibroblasts modeled by human mesenchymal stem cells (MSCs). The concentration ranges selected for each drug and investigational agent were based upon clinically achievable concentrations if the clinical Cmax of the agent was known.
Compounds. The drugs and investigational agents: abemaciclib (NSC768073), cobimetinib (NSC768068), divarasib (GDC6063, NSC841802), docetaxel (NSC628503), GDC-1971 (RLY-1971, NSC841576), gemcitabine (NSC613327), inavolisib (NSC800729), ipatasertib (NSC767898), KB-0742 (NSC834161), MRTX-1133 (NSC836407), osimertinib (NSC779217), RMC-4630 (NSC839698), RMC-6236 (NSC851965), RMC-6291 (NSC852671), Ro-3306 (NSC812927), sapanisertib (NSC764658), SN-38 (NSC673596), staurosporine (NSC755774), SY5609 (NSC837396), and tovorafenib (DAY101, NSC766906), were obtained from the National Cancer Institute (NCI) Developmental Therapeutics Program Chemical Repository. The FDA-approved anticancer drug set is available from the NCI Developmental Therapeutics Program. […] The stock solutions were prepared in dimethyl sulfoxide (DMSO, Sigma-Aldrich, St. Louis, MO, cat. D2650) at 800-fold the tested concentration and stored at -70 degrees C prior to their use. All drugs and investigational agents were tested over a range starting from a high concentration at or near the clinical Cmax and decreasing in half-log increments. If the clinical Cmax for an agent had not been determined, the highest concentration tested was 10 microM.
Cell Culture. All cells were maintained in an incubator at 37 degrees C and 5% CO2 with 95% humidity. The PDC lines were cultured according to standard operating procedures established by the NCI PDMR. All PDCs were thawed and cultured in Matrigel-coated flasks prepared with a working solution of 1X Ham's F-12 nutrient mix, without supplementation (Invitrogen, Waltham, MA, cat. 11765054), 100 U/mL penicillin-streptomycin (Invitrogen, cat. 15140122), and 2.5% Matrigel (Corning Inc., Corning, NY, cat. 354248) for the first three passages. The 362531-283-R-J2-PDC and 782815-120-R-J1-PDC lines were cultured in 6C/Colon 1B media, which includes advanced DMEM/F-12 (Thermo Fisher Scientific, cat. 12634028), 10 mM HEPES (Thermo Fisher Scientific, cat. 15630080), 1X GlutaMAX supplement (Thermo Fisher Scientific, cat. 35050061), 0.1 mg/mL primocin (InvivoGen, San Diego, CA, cat. ant-pm-2), 10% defined fetal bovine serum, heat inactivated (HyClone Laboratories Inc., Logan, UT, cat. SH30070.03HI), 50% L-WRN conditioned media (ATCC, cat. CRL-3276), 1.25 mM N-Acetyl-L-cysteine (Sigma-Aldrich, cat. A9165), 10 mM nicotinamide (Sigma-Aldrich, cat. N0636), 1X B-27 supplement (Thermo Fisher Scientific, cat. 17504044), 1X N-2 supplement (Thermo Fisher Scientific, cat. 17502048), 50 ng/mL human EGF (Thermo Fisher Scientific, cat. PHG0311), and 10 microM Y-27632 dihydrochloride (Tocris Bioscience, cat. 1254). The K12877-001-R-J1-PDC line was cultured in 6I media, which includes all 6C/Colon 1B media plus 10 ng/mL human FGF-10 (PeproTech, cat. 100-26), 1 ng/mL human FGF-2 (PeproTech, cat. 100-18B), 1 µM prostaglandin E2 (Tocris Bioscience, cat. 2296), […] hydrocortisone (Sigma-Aldrich, cat. H4001), and […] bovine insulin (Sigma-Aldrich, cat. I6634). The K86415-001-R-J1-PDC line was cultured in 6D media, which includes all 6C/Colon 1B media components minus the L-WRN conditioned media. The 485176-168-R4-J1-PDC was cultured in PANC media, which includes all 6C/Colon 1B media plus 100 ng/mL human FGF-10 (PeproTech, cat. 100-26), 500 nM SB-431542 (Selleckchem, cat. S1067), and 10 nM gastrin (Tocris Bioscience, cat. 3006). […]
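Also: spheroids exposed to agents for seven days before the viability readout.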
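For viability, T/C in this document: luminescence used as a proxy for viable cell amount.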

## CCC(CC)c1cc(NC2CCC(N)C2)n2nccc2n1 (configuration not stated) + C=CC(=O)N1CCN(c2nc(OCC3CCCN3C)nc3c(F)c(-c4nc(N)cc(C)c4C(F)(F)F)c(Cl)cc23)C(C)C1
Second compound 0.00316 µM
  IC50: 5160 nM
Second compound 0.01 µM
  IC50: 4560 nM
Second compound 0.0316 µM
  IC50: 2770 nM
Second compound 0.1 µM
  IC50: 1170 nM
Second compound 0.316 µM
  IC50: < 31.6 nM
Second compound 1 µM
  IC50: < 31.6 nM
Second compound 0.00316 µM, first compound 0.0316 µM
  viability, T/C: 97.6%
Second compound 0.00316 µM, first compound 0.1 µM
  viability, T/C: 93.8%
Second compound 0.00316 µM, first compound 0.316 µM
  viability, T/C: 91.5%
Second compound 0.00316 µM, first compound 1 µM
  viability, T/C: 87.3%
Second compound 0.00316 µM, first compound 3.16 µM
  viability, T/C: 78.2%
Second compound 0.00316 µM, first compound 10 µM
  viability, T/C: 13.5%
Second compound 0.01 µM, first compound 0.0316 µM
  viability, T/C: 88.2%
Second compound 0.01 µM, first compound 0.1 µM
  viability, T/C: 86.8%
Second compound 0.01 µM, first compound 0.316 µM
  viability, T/C: 84.6%
Second compound 0.01 µM, first compound 1 µM
  viability, T/C: 85.8%
Second compound 0.01 µM, first compound 3.16 µM
  viability, T/C: 66.2%
Second compound 0.01 µM, first compound 10 µM
  viability, T/C: 15.1%
Second compound 0.0316 µM, first compound 0.0316 µM
  viability, T/C: 78.6%
Second compound 0.0316 µM, first compound 0.1 µM
  viability, T/C: 73.3%
Second compound 0.0316 µM, first compound 0.316 µM
  viability, T/C: 73.1%
Second compound 0.0316 µM, first compound 1 µM
  viability, T/C: 60.4%
Second compound 0.0316 µM, first compound 3.16 µM
  viability, T/C: 51.3%
Second compound 0.0316 µM, first compound 10 µM
  viability, T/C: 8.93%
Second compound 0.1 µM, first compound 0.0316 µM
  viability, T/C: 48.2%
Second compound 0.1 µM, first compound 0.1 µM
  viability, T/C: 55.4%
Second compound 0.1 µM, first compound 0.316 µM
  viability, T/C: 51.9%
Second compound 0.1 µM, first compound 1 µM
  viability, T/C: 54.3%
Second compound 0.1 µM, first compound 3.16 µM
  viability, T/C: 34.1%
Second compound 0.1 µM, first compound 10 µM
  viability, T/C: 8.77%
Second compound 0.316 µM, first compound 0.0316 µM
  viability, T/C: 38.4%
Second compound 0.316 µM, first compound 0.1 µM
  viability, T/C: 38.9%
Second compound 0.316 µM, first compound 0.316 µM
  viability, T/C: 41%
Second compound 0.316 µM, first compound 1 µM
  viability, T/C: 37.3%
Second compound 0.316 µM, first compound 3.16 µM
  viability, T/C: 16.4%
Second compound 0.316 µM, first compound 10 µM
  viability, T/C: 7.47%
Second compound 1 µM, first compound 0.0316 µM
  viability, T/C: 32%
Second compound 1 µM, first compound 0.1 µM
  viability, T/C: 31.9%
Second compound 1 µM, first compound 0.316 µM
  viability, T/C: 33.3%
Second compound 1 µM, first compound 1 µM
  viability, T/C: 25.3%
Second compound 1 µM, first compound 3.16 µM
  viability, T/C: 11.1%
Second compound 1 µM, first compound 10 µM
  viability, T/C: 8.2%
